Results taken from patent publication US20240016781A1, “TREATMENT OF KRAS MUTANT CANCERS” (MEI Pharma, Inc., priority 2020, published 2024).
Read-outs that look alike come from different tables or passages of the source.

Key:
Assay in all cases: 72-hour CellTiter-Glo 2.0 growth inhibition screen (single agent, 9x9 combination dose matrix);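 on Best CI Level: inhibition effect level at which the best CI was calculated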
Format in all cases: cell-based
KYSE-410 = settings: for EC50: KYSE-410, 72 h
Panc 04.03 = settings: for EC50 / Response Area: Panc 04.03, Pancreas
SW48 KRAS (G12C/+) = settings: for EC50: SW48, 72 h, read-out: EC50
SW48 = settings: for EC50: SW48, 72 h
SW837 = settings: for EC50: SW837, 72 h
[1] = Homo sapiens, KYSE-410, Esophageal, Additional Single Agent Responses (inhibition, % I), 72 h
[2] = Homo sapiens, KYSE-410, Esophageal, growth inhibition (GI) curve, single agent, 72 h
[3] = KYSE-410 (KRAS G12C), enhancer + MEI-522 (Voruciclib), 72 h;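 on Best CI Level: inhibition effect level at which the best CI was calculated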
[4] = enhancer combined with MEI-522 (Voruciclib), KYSE-410 (Esophageal), 72 hours, inhibition data
[5] = Panc 04.03 (KRAS G12D), enhancer + MEI-522 (Voruciclib), 72 h;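 on Best CI Level: inhibition effect level at which the best CI was calculated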
[6] = enhancer combined with MEI-522 (Voruciclib), Panc 04.03 (Pancreas), 72 hours, inhibition data
[7] = Homo sapiens, SW48 KRAS (G12C/+), Colorectal, Additional Single Agent Responses (inhibition, % I), 72 h
[8] = Homo sapiens, SW48 KRAS (G12C/+), Colorectal, growth inhibition (GI) curve, single agent, 72 h
[9] = SW48 KRAS (G12C/+), enhancer + MEI-522 (Voruciclib), 72 h
[10] = enhancer combined with MEI-522 (Voruciclib), SW48 KRAS (G12C/+) (Colorectal), 72 hours, inhibition data
[11] = Homo sapiens, SW48, Colorectal, Additional Single Agent Responses (inhibition, % I), 72 h
[12] = Homo sapiens, SW48, Colorectal, growth inhibition (GI) curve, single agent, 72 h
[13] = SW48 (KRAS WT), enhancer + MEI-522 (Voruciclib), 72 h
[14] = enhancer combined with MEI-522 (Voruciclib), SW48 (Colorectal), 72 hours, inhibition data
[15] = Homo sapiens, SW837, Colorectal, Additional Single Agent Responses (inhibition, % I), 72 h
[16] = Homo sapiens, SW837, Colorectal, growth inhibition (GI) curve, single agent, 72 h
[17] = SW837 (KRAS G12C), enhancer + MEI-522 (Voruciclib), 72 h;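 on Best CI Level: inhibition effect level at which the best CI was calculated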
[18] = enhancer combined with MEI-522 (Voruciclib), SW837 (Colorectal), 72 hours, inhibition data

CN1CCN(c2ccc(OC(F)(F)F)c(Nc3ncc4c(n3)-c3c(c(C(N)=O)nn3CCO)CC4)c2)CC1 [Onvansertib]
EC50 (KYSE-410; [1]): 34.9 nM | EC50 (KYSE-410; [2]): 34.7 nM | IC50 (KYSE-410; [1]): 55.5 nM | Emax (KYSE-410; Homo sapiens, KYSE-410, Esophageal, Additional Single Agent Responses, 72 h, read-out: Max Response (% I)): 65% | GI50 (KYSE-410; [2]): 43.1 nM | Emax (KYSE-410; Homo sapiens, KYSE-410, Esophageal, growth inhibition (GI), single agent, 72 h, read-out: Max Response (% GI)): 78% | Best CI (KYSE-410; [3]): 0.60 | Bliss Volume (KYSE-410; [3]): −1.39 | HSA volume (KYSE-410; [3]): −2.18 | Loewe Volume (KYSE-410; [3]): −2.01 | Synergy Score (KYSE-410; [3]): 0.29 | Response Area (KYSE-410; KYSE-410, Esophageal, Additional Single Agent Responses (inhibition, % I), 72 h): 2.89 | Response Area (KYSE-410; KYSE-410, Esophageal, growth inhibition (GI), AUC, single agent, 72 h): 3.49 | Best CI (KYSE-410; [4]): 0.68 | Bliss Volume (KYSE-410; [4]): −1.63 | HSA volume (KYSE-410; [4]): −1.72 | Loewe Volume (KYSE-410; [4]): −1.53 | Synergy Score (KYSE-410; [4]): 0.20 | Best CI Level (KYSE-410; enhancer combined with MEI-522 (Voruciclib), KYSE-410 (Esophageal), 72 hours, inhibition data, unit assumed): 20% | GI50 (Panc 04.03; Homo sapiens, Panc 04.03, 72 h): 50.8 nM | EC50 (Panc 04.03; Homo sapiens, Panc 04.03, 72 h, Additional Single Agent Responses (inhibition, % I), 72 h): 18.7 nM | EC50 (Panc 04.03; Homo sapiens, Panc 04.03, 72 h, growth inhibition (GI) curve, single agent, 72 h): 19.2 nM | Emax (Panc 04.03; Homo sapiens, Panc 04.03, 72 h, read-out: Max Response (% GI)): 70% | Emax (Panc 04.03; Homo sapiens, Panc 04.03, 72 h, read-out: Max Response (% I)): 54% | Best CI (Panc 04.03; [5]): 0.32 | Bliss Volume (Panc 04.03; [5]): 2.32 | HSA volume (Panc 04.03; [5]): 0.85 | Loewe Volume (Panc 04.03; [5]): 0.87 | Synergy Score (Panc 04.03; [5]): 1.99 | Response Area (Panc 04.03; Additional Single Agent Responses (inhibition, % I), 72 h): 1.94 | Response Area (Panc 04.03; growth inhibition (GI), AUC, single agent, 72 h): 2.60 | Best CI (Panc 04.03; [6]): 0.64 | Best CI Level (Panc 04.03; [6]): 20 | Bliss Volume (Panc 04.03; [6]): 0.17 | HSA volume (Panc 04.03; [6]): 0.61 | Loewe Volume (Panc 04.03; [6]): 0.89 | Synergy Score (Panc 04.03; [6]): 0.98 | EC50 (SW48 KRAS (G12C/+); [7]): 15.5 nM | EC50 (SW48 KRAS (G12C/+); [8]): 17.1 nM | IC50 (SW48 KRAS (G12C/+); [7]): 16.3 nM | Emax (SW48 KRAS (G12C/+); Homo sapiens, SW48 KRAS (G12C/+), Colorectal, Additional Single Agent Responses, 72 h, read-out: Max Response (% I)): 93% | GI50 (SW48 KRAS (G12C/+); [8]): 15.9 nM | Emax (SW48 KRAS (G12C/+); Homo sapiens, SW48 KRAS (G12C/+), Colorectal, growth inhibition (GI), single agent, 72 h, read-out: Max Response (% GI)): 159% | Response Area (SW48 KRAS (G12C/+); SW48 KRAS (G12C/+), Colorectal, Additional Single Agent Responses (inhibition, % I), 72 h): 4.14 | Response Area (SW48 KRAS (G12C/+); SW48 KRAS (G12C/+), Colorectal, growth inhibition (GI), AUC, single agent, 72 h): 5.77 | Best CI (SW48 KRAS (G12C/+); [9]): 0.86 | Bliss Volume (SW48 KRAS (G12C/+); [9]): 2.74 | HSA volume (SW48 KRAS (G12C/+); [9]): −2.16 | Loewe Volume (SW48 KRAS (G12C/+); [9]): −0.91 | Synergy Score (SW48 KRAS (G12C/+); [9]): 5.28 | Best CI (SW48 KRAS (G12C/+); [10]): 0.67 | Best CI Level (SW48 KRAS (G12C/+); [10]): 20 | Bliss Volume (SW48 KRAS (G12C/+); [10]): −0.08 | HSA volume (SW48 KRAS (G12C/+); [10]): 0.19 | Loewe Volume (SW48 KRAS (G12C/+); [10]): −0.06 | Synergy Score (SW48 KRAS (G12C/+); [10]): 1.03 | EC50 (SW48; [11]): 13.8 nM | EC50 (SW48; [12]): 15.4 nM | IC50 (SW48; [11]): 14.3 nM | Emax (SW48; Homo sapiens, SW48, Colorectal, Additional Single Agent Responses, 72 h, read-out: Max Response (% I)): 95% | GI50 (SW48; [12]): 13.4 nM | Emax (SW48; Homo sapiens, SW48, Colorectal, growth inhibition (GI), single agent, 72 h, read-out: Max Response (% GI)): 177% | Best CI (SW48; [13]): 0.72 | Bliss Volume (SW48; [13]): 6.27 | HSA volume (SW48; [13]): −3.43 | Loewe Volume (SW48; [13]): −1.93 | Synergy Score (SW48; [13]): 7.50 | Response Area (SW48; SW48, Colorectal, Additional Single Agent Responses (inhibition, % I), 72 h): 4.36 | Response Area (SW48; SW48, Colorectal, growth inhibition (GI), AUC, single agent, 72 h): 7.09 | Best CI (SW48; [14]): 0.76 | Bliss Volume (SW48; [14]): −0.78 | HSA volume (SW48; [14]): −0.51 | Loewe Volume (SW48; [14]): −0.74 | Synergy Score (SW48; [14]): 1.28 | Best CI Level (SW48; enhancer combined with MEI-522 (Voruciclib), SW48 (Colorectal), 72 hours, inhibition data, unit assumed): 20% | EC50 (SW837; [15]): 35.4 nM | EC50 (SW837; [16]): 42.1 nM | IC50 (SW837; [15]): 53.4 nM | Emax (SW837; Homo sapiens, SW837, Colorectal, Additional Single Agent Responses, 72 h, read-out: Max Response (% I)): 76% | GI50 (SW837; [16]): 34.1 nM | Emax (SW837; Homo sapiens, SW837, Colorectal, growth inhibition (GI), single agent, 72 h, read-out: Max Response (% GI)): 118% | Best CI (SW837; [17]): 0.78 | Bliss Volume (SW837; [17]): 0.66 | HSA volume (SW837; [17]): −1.30 | Loewe Volume (SW837; [17]): −4.09 | Synergy Score (SW837; [17]): 0.88 | Response Area (SW837; SW837, Colorectal, Additional Single Agent Responses (inhibition, % I), 72 h): 3.32 | Response Area (SW837; SW837, Colorectal, growth inhibition (GI), AUC, single agent, 72 h): 5.06 | Best CI (SW837; [18]): 0.76 | Best CI Level (SW837; [18]): 20 | Bliss Volume (SW837; [18]): −1.39 | HSA volume (SW837; [18]): −0.59 | Loewe Volume (SW837; [18]): −2.03 | Synergy Score (SW837; [18]): 0.33
